According to patent publication US8003676B2, “1,3,4-oxadiazole derivatives as DGAT1 inhibitors” (AstraZeneca AB, priority 2006, dated 2011):

What was measured:
human DGAT1 = biological target: T1, human DGAT1 (Homo sapiens, UniProt O75907); experiment: Human Enzyme Assay (DGAT1 inhibition, 14C oleoyl CoA, triolein formation); assay type: biochemical; details: human DGAT1 expressed in sf9 insect cell membranes
T1 construct: made in house; host or cells: Sf9 insect cells (baculovirus), membrane fraction
T1 sequence (O75907 1-488): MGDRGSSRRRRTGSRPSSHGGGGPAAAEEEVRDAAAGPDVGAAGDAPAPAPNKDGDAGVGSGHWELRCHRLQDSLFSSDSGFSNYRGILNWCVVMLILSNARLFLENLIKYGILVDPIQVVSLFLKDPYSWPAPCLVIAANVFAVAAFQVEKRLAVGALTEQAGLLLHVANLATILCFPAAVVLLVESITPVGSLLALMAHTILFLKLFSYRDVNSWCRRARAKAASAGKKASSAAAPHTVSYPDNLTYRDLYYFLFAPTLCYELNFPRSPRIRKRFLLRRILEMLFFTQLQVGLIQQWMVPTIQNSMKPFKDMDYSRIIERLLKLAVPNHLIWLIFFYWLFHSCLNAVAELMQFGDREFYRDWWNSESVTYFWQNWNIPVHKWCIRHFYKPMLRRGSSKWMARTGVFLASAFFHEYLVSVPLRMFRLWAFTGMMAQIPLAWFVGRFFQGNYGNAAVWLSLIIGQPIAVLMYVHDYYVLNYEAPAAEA
Protocol: The in vitro assay to identify DGAT1 inhibitors uses human DGAT1 expressed in insect cell membranes as the enzyme source (Proc. Natl. Acad. Sci. 1998, 95, 13018-13023). Briefly, sf9 cells were infected with recombinant baculovirus containing human DGAT1 coding sequences and harvested after 48 h. Cells were lysed by sonication and membranes isolated by centrifuging at 28000 rpm for 1 h at 4° C. on a 41% sucrose gradient. The membrane fraction at the interphase was collected, washed, and stored in liquid nitrogen.
DGAT1 activity was assayed by a modification of the method described by Coleman (Methods in Enzymology 1992, 209, 98-102). Compound at 1-10 μM was incubated with 0.4 μg membrane protein, 5 mM MgCl2, and 100 μM1,2 dioleoyl-sn-glycerol in a total assay volume of 200 μl in plastic tubes. The reaction was started by adding ^14C oleoyl coenzyme A (30 μM final concentration) and incubated at room temperature for 30 minutes. The reaction was stopped by adding 1.5 mL 2-propanol:heptane:water (80:20:2). Radioactive triolein product was separated into the organic phase by adding 1 mL heptane and 0.5 mL 0.1 M carbonate buffer pH 9.5. DGAT1 activity was quantified by counting aliquots of the upper heptane layer by liquid scintillography.

ACAT = ACAT enzyme assay (esterification of cholesterol); selectivity DGAT over ACAT; assay type: biochemical; details: DGAT vs ACAT enzyme assays
Protocol: • Mouse adipocyte 3T3 cells were cultured to confluency in 6 well plates in new born calf serum containing media. Differentiation of the cells was induced by incubating in medium containing 10% foetal calf serum, 1 μg/mL insulin, 0.25 μM dexamethasone and 0.5 mM isobutylmethyl xanthine. After 48 h the cells were maintained in medium containing 10% foetal calf serum and 1 μg/mL insulin for a further 4-6 days. For the experiment, the medium was changed to serum-free medium and the cells pre-incubated with compound solubilised in DMSO (final concentration 0.1%) for 30 minutes. De novo lipogenesis was measured by the addition of 0.25 mM sodium acetate plus 1 μCi/mL ^14C-sodium acetate to each well for a further 2 h (J. Biol. Chem., 1976, 251, 6462-6464). […] Incorporation of radiolabel into the triglyceride fraction was analysed using a Radiomatic Flo-one Detector (Packard) connected to the HPLC machine. […] De novo lipogenesis was measured by the addition of 50 μM sodium acetate plus 3 μCi/mL ^14C-sodium acetate to each well for a further 3 h (J. Biol. Chem., 1976, 251, 6462-6464). […] Incorporation of radiolabel into the triglyceride fraction was analysed using a Radiomatic Flo-one Detector (Packard) connected to the HPLC machine. • 3) The ability of compounds to inhibit ACAT can be measured using a modification of the enzyme assay described in Billheimer (1985) Methods in Enzymology, 111, 286-293. […]

IC50 (human DGAT1): 4 nM
selectivity to inhibit DGAT over inhibition of ACAT (ratio of IC50 values in the DGAT and ACAT enzyme assays) (ACAT): 70 fold
Structure (SMILES): O=C(Nc1ccc(O[C@H]2CC[C@@H](C(=O)O)CC2)cc1F)c1nnc(Nc2cc(F)c(F)cc2F)o1 [Example 1, cis-4-(3-Fluoro-4-{[5-(2,4,5-trifluoro-phenylamino)-[1,3,4]oxadiazole-2-carbonyl]-amino}-phenoxy)-cyclohexanecarboxylic acid]
